Data taken from patent US4272528A, “Phosphonoacetyl aminoacids” (Abbott Laboratories, priority 1980, dated 1981).
Read-outs that look alike come from different tables or passages of the source.

Biological target: herpes DNA polymerase (Human herpesvirus 1, UniProt P04293)
Assay: herpes DNA polymerase activity assay
Format: biochemical
Conditions: for % Inhibition at Drug Level 1.666 μg/ml / % Inhibition at Drug Level 16.6 μg/ml / % Inhibition at Drug Level 166 μg/ml: fixed dilution
Experimental: The above compounds were tested for herpes DNA polymerase activity in the manner shown in Example 9 of U.S. Pat. No. 4,138,432. The assay, using fixed dilutions of the above compounds, produced the following results:
When variable solution concentrations were used, the results were as follows: […]

[1] = variable solution concentrations, read-out: ID50 (the source's name) (converted)

Sequence of herpes DNA polymerase (P04293 whole entry): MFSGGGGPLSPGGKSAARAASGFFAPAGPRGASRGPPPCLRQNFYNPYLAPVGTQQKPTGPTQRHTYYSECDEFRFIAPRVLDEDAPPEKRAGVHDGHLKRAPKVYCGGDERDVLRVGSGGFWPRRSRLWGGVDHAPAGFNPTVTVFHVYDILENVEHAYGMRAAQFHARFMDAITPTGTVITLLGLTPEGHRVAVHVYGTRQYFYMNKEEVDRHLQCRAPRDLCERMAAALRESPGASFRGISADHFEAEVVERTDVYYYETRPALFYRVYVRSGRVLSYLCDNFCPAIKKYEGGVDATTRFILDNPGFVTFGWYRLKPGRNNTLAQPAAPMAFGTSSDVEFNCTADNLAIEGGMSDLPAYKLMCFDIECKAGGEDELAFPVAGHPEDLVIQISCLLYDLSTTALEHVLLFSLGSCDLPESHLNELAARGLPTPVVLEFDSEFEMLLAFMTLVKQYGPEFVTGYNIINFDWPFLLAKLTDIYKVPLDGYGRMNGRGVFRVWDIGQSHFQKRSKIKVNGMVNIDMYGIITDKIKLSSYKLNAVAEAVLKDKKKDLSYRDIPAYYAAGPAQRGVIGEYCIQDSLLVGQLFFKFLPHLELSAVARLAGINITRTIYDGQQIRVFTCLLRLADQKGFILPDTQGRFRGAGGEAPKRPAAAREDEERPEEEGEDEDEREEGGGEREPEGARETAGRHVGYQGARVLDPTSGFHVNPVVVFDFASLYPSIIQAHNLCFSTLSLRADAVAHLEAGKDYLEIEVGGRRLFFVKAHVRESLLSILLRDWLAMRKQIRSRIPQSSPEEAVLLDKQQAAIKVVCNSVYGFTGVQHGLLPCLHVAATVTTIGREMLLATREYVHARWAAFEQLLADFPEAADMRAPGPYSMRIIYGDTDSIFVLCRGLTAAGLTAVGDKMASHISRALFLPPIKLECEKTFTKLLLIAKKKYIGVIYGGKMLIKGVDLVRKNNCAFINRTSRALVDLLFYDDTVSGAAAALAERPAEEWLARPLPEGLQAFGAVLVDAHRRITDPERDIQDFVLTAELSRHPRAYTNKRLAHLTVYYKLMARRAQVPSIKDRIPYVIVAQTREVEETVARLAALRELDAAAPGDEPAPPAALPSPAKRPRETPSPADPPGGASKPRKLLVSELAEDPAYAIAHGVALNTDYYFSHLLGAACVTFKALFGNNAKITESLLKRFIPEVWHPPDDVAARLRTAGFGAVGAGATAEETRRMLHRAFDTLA

IC50 [1]	Compound	IC50	% Inhibition at Drug Level 1.666 μg/ml	% Inhibition at Drug Level 16.6 μg/ml	% Inhibition at Drug Level 166 μg/ml
–	O=C(O)CNC(=O)CP(=O)(O)O [Example 1, PAA-Gly]	28.9 µM	33%	56%	72%
203 µM	N=C(N)NCCCC(NC(=O)CP(=O)(O)O)C(=O)O (stereo not shown) [PAA-Arg, reference compound]	–	–	–	–
–	O=C(O)CP(=O)(O)O [PAA-Na, reference compound]	–	82%	98%	99%
–	O=C(O)CCNC(=O)CP(=O)(O)O [Example 3, PAA-β-Ala]	50.2 µM	15%	59%	88%
–	C[C@H](NC(=O)CP(=O)(O)O)C(=O)O [Example 2 (L), PAA-L-Ala]	–	–	–	59%
–	C[C@@H](NC(=O)CP(=O)(O)O)C(=O)O [Example 2 (D), PAA-D-Ala]	31.3 µM	19%	68%	87%
10.6 µM	O=C(O)CC(NC(=O)CNC(=O)CP(=O)(O)O)C(=O)O (stereo not shown) [Example 4, PAA-Gly-Asp]	–	39%	77%	93%

Compound	IC50 [1]	IC50	% Inhibition at Drug Level 1.666 μg/ml	% Inhibition at Drug Level 16.6 μg/ml	% Inhibition at Drug Level 166 μg/ml
O=C(O)C[C@H](NC(=O)CP(=O)(O)O)C(=O)O [PAA-L-Asp, reference compound]	141 µM	–	–	–	–
